Assay results as given in patent publication US12128013B2, “Toxic aldehyde related diseases and treatment” (Aldeyra Therapeutics, Inc., priority 2013, dated 2024).
“Also recorded” adds a separate entry of the source.

Assays:
[1] = Reaction with MDA salt in glyceryl trioleate / Captisol-PBS / linoleic acid, monitored by LC/MS; conditions: 0.064 mmol compound and MDA, ambient temperature
Description: To five separate reaction vials was added Compounds 1, 2, 12, 14, and 16, respectively (0.064 mmol), MDA salt (22.7% MDA, 0.064 mmol), and glyceryl trioleate (600 mg). To the mixture was added 20 wt % Capitsol in aqueous PBS (˜2.5 ml), followed by linoleic acid (600 mg). The reaction mixture was stirred vigorously at ambient temperature and monitored by LC/MS. […] Other MDA adducts were also formed at different time points of the reactions.

[2] = Aldehyde trapping (FIG. 1), HNE
allergic dermatitis = test: Allergic dermatitis, oxazolone (OXL) model, pinna thickness; type: in vivo, mice; conditions: single dose 100 mg/kg intraperitoneally, FIG. 5B
Description: To measure the efficacy of Compound 9 in treating allergic dermatitis, oxazolone (“OXL”) was applied (1.5%, 100 μL in acetone) to the shaved abdomens of mice. Seven days later, the thickness of the pinna of the OXL treated mice was determined. Then Compound 9 (100 mg/kg) or the vehicle (i.e., Captisol) was administered intraperitoneally to mice followed by topical application of OXL (1%, 20 μL) 30 min later to both the anterior and posterior portions of the right pinna. As a control, the left pinna received 20 μL of acetone (OXL excipient) to both the anterior and posterior portions. The thickness of the pinna of both ears was measured again 24 hours later. N=10 per group.

contact dermatitis = test: Contact dermatitis, phorbol myristate acetate (PMA) model, pinna thickness; type: in vivo, mice; conditions: single dose, FIG. 5A
Description: To determine the efficacy of Compound 9 in treating contact dermatitis, phorbol myristate acetate (“PMA”) was applied topically (2.5 μg in 20 μL) to both the anterior and posterior portions of the right pinna of mice (N=10 per group). As a control, the left pinna received 20 μL of ethanol (PMA excipient) to both the anterior and posterior portions. Six hours after the PMA application, both the right and left pinna thickness was determined. Measurements were determined at least twice from the same region of both ears, with care taken not to include hair or folded pinna.

[3] = system: Primary rat cortical cultures; test: LDH assay in primary rat cortical cultures; type: cell-based; conditions: 24 or 48 hours, various concentrations; FIG. 2
Description: Primary rat cortical cultures were placed in an incubator for 24 or 48 hours and treated with various concentrations of Compound 9. Then 20 μL of the culture media was removed for an LDH assay as described in Bergmeyer et al., Methods of Enzymatic Analysis, 3rd ed. (1983).

[4] = Aldehyde trapping (FIG. 1), MDA
[5] = system: radiation induced fibrosis; test: Radiation induced fibrosis after 40 Gy irradiation; type: in vivo; conditions: hamsters subject to 40 Gy irradiation; FIG. 7
circulating cytokines = test: LPS exposure in mice, ELISA of circulating cytokines; type: in vivo, Male C57BI/6 mice; conditions: single dose 30 minutes before LPS (20 mg/kg), blood two hours after LPS
Description: Male C57BI/6 mice were dosed with Compound 9 30 minutes before they were exposed to LPS (20 mg/kg). Two hours after the LPS exposure, blood was collected from the mice and an ELISA was conducted to determine the amount of circulating cytokines.

[6] = in the presence of peptides and phospholipids

SMILES	form of the MDA adducts [1]	reaction with MDA / trapping of MDA (formation of MDA adducts) [1]	further results
CC(C)(O)c1c(N)cc(Cl)c2c(C3CC3)noc12 [Compound 16, 2-(6-amino-4-chloro-3-cyclopropylbenzisoxazol-7-yl)propan-2-ol]	a majority of the adducts were bis-oxaminal	quickly react with MDA to form MDA adducts; also recorded: reacts and traps MDA	–
CC(C)(O)c1c(N)cc2onc(C3CC3)c2c1Cl [Compound 14, 2-(6-amino-4-chloro-3-cyclopropylbenzisoxazol-5-yl)propan-2-ol]	a majority of the adducts were bis-oxaminal	quickly react with MDA to form MDA adducts; also recorded: reacts and traps MDA	–
CC(C)(O)c1c(N)cnc2ccc(Cl)c(F)c12 [Compound 1, 2-(3-amino-6-chloro-5-fluoroquinolin-4-yl)propan-2-ol]	a majority of the adducts were bis-oxaminal	quickly react with MDA to form MDA adducts; also recorded: reacts and traps MDA	–
CC(C)(O)c1c(N)cnc2ccc(Cl)cc12 [Compound 2, 2-(3-amino-6-chloroquinolin-4-yl)propan-2-ol]	–	quickly react with MDA to form MDA adducts; also recorded: reacts and traps MDA	–
Cc1ccc(-c2nc3cc(N)c(C(C)(C)O)c(Cl)c3o2)cc1 [Compound 12, 2-(5-amino-7-chloro-2-p-tolylbenzoxazol-6-yl)propan-2-ol]	a majority of the adducts were bis-oxaminal	quickly react with MDA to form MDA adducts; also recorded: reacts and traps MDA	–
CC(C)(O)c1nc2ccc(Cl)cc2cc1N [Compound 9]	in both the imine form and the oxaminal form	reacted with MDA and formed MDA adducts; also recorded: reacts and traps MDA	reaction with and trapping of HNE ([2]; FIG. 1): rapidly reacts with and traps; also recorded: decrease aldehyde (e.g., MDA and HNE) concentration in a time-dependent manner; trapping of HNE [2, 6]: rapidly traps MDA and HNE; efficacy against allergic dermatitis (allergic dermatitis): effective; efficacy against contact dermatitis (contact dermatitis): effective; aldehyde-mediated cell death in neurons (LDH assay) [3]: prevented aldehyde-mediated cell death in neurons; reaction with and trapping of MDA ([4]; FIG. 1): rapidly reacts with and traps; also recorded: decrease aldehyde (e.g., MDA and HNE) concentration in a time-dependent manner; trapping of MDA [4, 6]: rapidly traps MDA and HNE; radiation induced fibrosis [5]: diminishes radiation induced fibrosis; other chemokines, such as eotaxin, IL-12, IP-10, LIF, MCP-1, MIG, MIP, and RANTES (circulating cytokines): decreased; anti-inflammatory cytokines, such as IL-10 (circulating cytokines; FIG. 4): elevated; proinflammatory cytokines, such as IL-5 and IL-1β, IL-17, and TNF (circulating cytokines; FIGS. 3 and 4): broad downregulation; also recorded: reduction
